Assay type in all cases: physicochemical
Series [1] can be described thus: Thermogravimetric Analysis (TGA). The method, then: The thermogravimetric analyzer (TGA) involved herein is Q500TGA from TA Instruments; detection conditions: a platinum crucible, a protective atmosphere of nitrogen, a gas flow rate of 40 mL/min; and the following detection method: a Hi-Res sensitivity of 3.0, ramp 10.00° C./min, res 5.0 to 150.00° C., and ramp 10.00° C./min to 350° C. 4. Thermogravimetric Analysis (TGA) of Said Crystalline Form A The determination was carried out using the aforementioned instruments, determination methods, operating conditions, and parameters.

Series [2] is described as follows: Dynamic Vapor Sorption (DVS) analysis. To be noted: from 0% RH to 80% RH, 25° C. The method, then: The dynamic vapor sorption (DVS) instrument involved herein is Q5000TGA from TA Instruments; detection conditions: a platinum crucible, a protective atmosphere of nitrogen, a gas flow rate of 10 mL/min; and the following detection method: [table] 5. Dynamic Vapor Sorption (DVS) Analysis of Said Crystalline Form A The determination was carried out using the aforementioned instruments, determination methods, operating conditions, and parameters.

The nature of series [3]: Stability test of Crystalline Form A (XRD and DSC, Day 0 / Day 10). To be noted: for change of crystalline form (XRD test): within 10 days. The method, then: Sample and experimental preparation: the Crystalline Form A as prepared in Example 2 was taken as a sample; a proper amount of the sample was weighted and placed on a watch glass to form a thin layer of about 3˜5 mm in thickness.
Experimental conditions: conventional (sealed and kept in darkness at 25° C.), long-term (uncovered and kept in darkness with −60% RH at 25° C.), and accelerated (uncovered and kept in darkness with −75% RH at 40° C.) conditions.
Detection time: Day 0, Day 10.
Detected items: crystalline forms (XRD test), and melting points (DSC test).

For the compound `[2H]C([2H])(CCS(=O)(=O)O)NC(=O)[C@@H](N)C(C)C` [Crystalline Form A, 3-((L-valyl)amino)-3,3-dideuterium-1-propanesulfonic acid], the “weight loss (TGA)” value in series [1] (before 120° C.) is given as “about 0.9 wt %”. In addition, the “decomposition temperature (TGA)” value in series [1] (ramp 10° C./min, nitrogen) is “about 326 °C”. For the same compound, in series [2], the “hygroscopicity class (DVS determination criteria)” value was “slightly hygroscopic”. Moreover, in series [2], the “weight change (DVS isotherm)” value is “about 0.3 wt %”. In addition, the “variation of melting point (DSC test)” value in series [3] was “±1 °C”. Also, the “change of crystalline form (XRD test)” value was “no change was detected” in series [3] (accelerated: uncovered, kept in darkness with −75% RH at 40° C.); “no change was detected” in series [3] (conventional: sealed, kept in darkness at 25° C.); “no change was detected” in series [3] (long-term: uncovered, kept in darkness with −60% RH at 25° C.).

These data come from US11186543B2, “Crystalline form of 3-((L-valyl)amino))-3,3-dideuterium-1-propanesulfonic acid, preparation method and uses thereof” (RISEN (SUZHOU) PHARMA TECH CO., LTD., priority 2018, dated 2021).
